According to patent US12618070B2, “Increasing Atoh1 life to drive sensorineural hair cell differentiation” (Massachusetts Eye and Ear Infirmary, priority 2014, dated 2026):
Entries after “also recorded” stand apart in the source; their conditions may differ. Peptide text beside a SMILES is read from it. * marks the point of attachment. Cbz = O=C(OCc1ccccc1)*

B1: Atoh1: wild-type Atoh1 protein, FLAG- or FLAG-HA-tagged, expressed in HEK/293T cells (protein)
chain: MSRLLHAEEWAEVKELGDHHRQPQPHHLPQPPPPPQPPATLQAREHPVYPPELSLLDSTDPRAWLAPTLQGICTARAAQYLLHSPELGASEAAAPRDEVDGRGELVRRSSGGASSSKSPGPVKVREQLCKLKGGVVVDELGCSRQRAPSSKQVNGVQKQRRLAANARERRRMHGLNHAFDQLRNVIPSFNNDKKLSKYETLQMAQIYINALSELLQTPSGGEQPPPPPASCKSDHHHLRTAASYEGGAGNATAAGAQQASGGSQRPTPPGSCRTRFSAPASAGGYSVQLDALHFSTFEDSALTAMMAQKNLSPSLPGSILQPVQEENSKTSPRSHRSDGEFSPHSHYSDSDEAS
modifications: left off: large carriers
notes: wild-type Atoh1 protein, FLAG- or FLAG-HA-tagged, expressed in HEK/293T cells

What was measured:
Type in all cases: cell-based
[1] = test system: Atoh1; assay: Atoh1 level in P1 organ of Corti explants treated with proteasome inhibitor; conditions: P1 mouse organ of Corti, MG132 10 uM, 3 hours, vs DMSO
Experimental: FIG. 10. Inhibition of proteasome activity stabilizes Atoh1 in the cochlea. The organ of Corti from a P1 mouse was treated with proteasome inhibitor, MG132 (10 uM) for 3 hours. Atoh1 levels were higher in the MG132-treated organ of Corti. DMSO served as control; β-actin is a loading control.
Cochlear tissues were dissected from 1-day postnatal CD-1 mice (Charles River Laboratories). Spiral ganglion, Reissner's membrane, and the hook region of the organ of Corti were removed to obtain a flat cochlear surface preparation (Parker et al., 2010). Explants were plated onto 4-well plates (Greiner Bio-One) coated with Matrigel (BD Biosciences) diluted 1:10 in DMEM supplemented with 10% fetal bovine serum overnight.
To test whether proteasomal activity regulated Atoh1 in the cochlea we treated P1 organ of Corti explants with proteasome inhibitor, MG132 (10 uM).

[2] = test system: Atoh1; assay: Cycloheximide chase of Atoh1 with proteasome inhibitor or Huwe1 shRNA in FLAG-HA-Atoh1 293T cells; conditions: cycloheximide 100 ug/ml plus MG132 10 uM
Experimental: FIGS. 2A-E. Atoh1 is degraded by the ubiquitin-proteasome pathway. […] HEK cells were transfected with FLAG-Atoh1 plasmid (1 ug/ml) for 24 hours, and incubated with either DMSO or MG132 (10 uM) for 3 hours and immunoprecipitated using FLAG (Atoh1) or beta-actin (loading control) antibodies. (B) FLAG-HA-Atoh1 293T cells were treated with cycloheximide (100 ug/ml) and MG132 (10 uM) at the indicated times and immunoprecipitated with FLAG (Atoh1) or beta-actin (loading control) antibodies. Time of treatment is indicated. (C) Half-lives based on densitometry from 3 experiments are shown. The ratio of Atoh1 to β-actin was plotted after normalization. Error bars indicate SEM. (D) & (E). […]
FIGS. 9A-D. Huwe1 plasmid increased and Huwe1 siRNA inhibited degradation of Atoh1. […] Quantification of Atoh1, Huwe1 and a loading control (HSC70) were performed by Western blotting and densitometry. […] Atoh1 (FLAG) and Huwe1 were analyzed by Western blotting and densitometry normalized to loading controls in three experiments. […]
HEK cells were transfected with either FLAG-Atoh1 (wild-type), or indicated mutant FLAG-Atoh1 plasmids (1 μg/ml) using Lipofectamine 2000 (3 μl per 1 μg of cDNA, Invitrogen). […] Protein bands were quantified by densitometry. The half-lives of indicated proteins were calculated using GraphPad Prism 6 software and a one-phase exponential-decay model.

[3] = test system: Atoh1; assay: Atoh1 level after proteasome inhibition in HEK cells transfected with FLAG-Atoh1; conditions: MG132 10 uM, 3 hours, vs DMSO
Experimental: (§1) FIGS. 2A-E. Atoh1 is degraded by the ubiquitin-proteasome pathway. […] HEK cells were transfected with FLAG-Atoh1 plasmid (1 ug/ml) for 24 hours, and incubated with either DMSO or MG132 (10 uM) for 3 hours and immunoprecipitated using FLAG (Atoh1) or beta-actin (loading control) antibodies. (B) FLAG-HA-Atoh1 293T cells were treated with cycloheximide (100 ug/ml) and MG132 (10 uM) at the indicated times and immunoprecipitated with FLAG (Atoh1) or beta-actin (loading control) antibodies. Time of treatment is indicated. (C) Half-lives based on densitometry from 3 experiments are shown. The ratio of Atoh1 to β-actin was plotted after normalization. Error bars indicate SEM. (D) & (E). Atoh1 is polyubiquitylated and degraded by the ubiquitin-proteasome pathway. FLAG-HA-Atoh1 293T cells were treated with either DMSO or MG132 (10 uM) for 6 hours. Lysates were immunoprecipitated with anti-FLAG antibody and subjected to immunoblotting with a ubiquitin antibody. FLAG was used to assess immunoprecipitation.
To determine if the ubiquitin-proteasome pathway was involved in Atoh1 degradation, HEK cells were transfected with FLAG-Atoh1 (1 μg/ml) using Lipofectamine 2000 (Invitrogen) for […] and either DMSO or MG132 (10 μM) for […]. Transfected cells were lysed in Pierce IP Lysis Buffer (Thermo) containing 1× complete protease inhibitors and 1×PhosSTOP phosphatase inhibitors (Roche). […]

[4] = test system: Atoh1; assay: Polyubiquitylation of Atoh1: anti-FLAG immunoprecipitation, ubiquitin immunoblot; conditions: MG132 10 uM, 6 hours
Experimental: as §1, with “immunoprecipitation. […]” for “immunoprecipitation.”
We then assessed polyubiquitylation of Atoh1 in the presence of a proteasome inhibitor which would prevent degradation of the ubiquitinated protein. […] The cell lysates were immunoprecipitated with anti-FLAG antibody, and the pattern of ubiquitylation was assessed with an anti-ubiquitin antibody.

[5] = test system: FLAG-HA-Atoh1 293T cells; assay: Cycloheximide chase, half-life of Atoh1 by Western blotting and densitometry
Experimental: FIGS. 1A-B. Atoh1 is a short-lived protein. (A) FLAG-HA-Atoh1 293T cells were treated with cycloheximide (100 ug/ml) and harvested at the indicated times. Lysates were processed for Western blotting with FLAG antibody (Atoh1) or β-actin antibody (loading control). Labels indicate the time of chase. (B) Protein half-lives based on densitometry. The ratio of Atoh1 to β-actin was plotted after normalizing to the initial ratio set to 100. Error bars indicate SEM.
HEK cells were transfected with either FLAG-Atoh1 (wild-type), or indicated mutant FLAG-Atoh1 plasmids (1 μg/ml) using Lipofectamine 2000 (3 μl per 1 μg of cDNA, Invitrogen). Forty-eight hours after transfection, 100 μg/ml cycloheximide (Sigma) was added to block protein synthesis. Cells were harvested at 0, 30, 60, 120, and 240 minutes. Equal amounts of protein from each treatment were taken for Western blotting. Protein bands were quantified by densitometry. The half-lives of indicated proteins were calculated using GraphPad Prism 6 software and a one-phase exponential-decay model.
To determine the half-life of Atoh1, we used cycloheximide to prevent new protein synthesis and followed the time course of disappearance of previously synthesized Atoh1 by Western blotting during a chase period. We transfected 293T cells with FLAG-HA-Atoh1 and treated with cycloheximide at 48 hours after transfection.

| Molecule | Atoh1 level in organ of Corti [1] | half-life of Atoh1 [2] | level of Atoh1 [3] | level of Atoh1 protein ([4]; FLAG-HA-Atoh1 293T cells, reprobed blot and input protein) | density of high molecular weight poly-ubiquitin forms of Atoh1 ([4]; FLAG-HA-Atoh1 cells, vs DMSO) | turnover rate of Atoh1 [5] |
| --- | --- | --- | --- | --- | --- | --- |
| CC(C)C[C@@H](C=O)NC(=O)[C@H](CC(C)C)NC(=O)[C@H](CC(C)C)NC(=O)OCc1ccccc1 [MG132] (Cbz-Leu-Leu-Leu-aldehyde) | increased; also recorded: higher | extended the half-life | significantly increased; also recorded: stabilized Atoh1 expression | increased the level of protein | increased the density |  |
| B1 |  |  |  |  |  | less than 1 hour |
